Source: patent US20050169992A1, “Methods and dosage forms for increasing solubility of drug compositions for controlled delivery” (priority 2003, published 2005)

Key:
[1] = Analytical Profiles of Drug Substances Volume 13, p 425; cited from earlier work
[2] = Saturated solubility of topiramate in de-ionized water and aqueous surfactant solutions at 37° C.; type: physicochemical; conditions: Lutrol F127, F87, F108, F68 and Myrj 52 solutions at 1, 5, 15 weight percent, FIG. 6
Description: Aqueous solubility is determined by adding the therapeutic agent to stirred or agitated water maintained in a constant temperature bath at a temperature of 37 degrees centigrade until equilibrium is established between the dissolved and undissolved states and the concentration of dissolved drug is constant. The resulting solution saturated with active agent is then filtered, typically under pressure through a 0.8-micron Millipore filter, and the concentration in solution is measured by any appropriate analytical method including gravimetric, ultraviolet spectrophotometry, refractive index, refractive index chromatography, and the like.
The present invention involves a method to match the appropriate solid surfactant or blend of surfactants with a particular pharmaceutical active agent to produce the solubilizing core, or S-Core of the present invention. […] Then, pharmaceutical agent is added in excess to the surfactant solutions and the saturated solubility of the pharmaceutical active agent is then measured by an appropriate analytical method such as ultraviolet spectroscopy, chromatographic methods, or gravimetric analysis. […]
The aqueous surfactant solutions were then equilibrated to constant temperature in a 37° C. water bath. […] The resulting saturated solutions of drug were filtered through 0.8-micron filters and analyzed for drug concentration by refractive index chromatography. […]

Row | Compound | Solubility of phenytoin [1] | Topiramate solubility in water in the presence of surfactant compared to control [2]
1 | O=C1NC(=O)C(c2ccccc2)(c2ccccc2)N1 [phenytoin] | 20 µg/mL | 
2 | CC1(C)O[C@@H]2[C@@H](CO[C@@]3(COS(N)(=O)=O)OC(C)(C)O[C@@H]23)O1 [topiramate] |  | increased
